Data published in US7205309B2, “Quinazoline derivatives” (Hoffmann-La Roche Inc., priority 2002, dated 2007).

Biological target: T1, recombinant mouse NPY5-receptor (mNPY5) (Mus musculus, UniProt O70342)
T1 construct: The full-length cDNA encoding the mouse NPY5 (mNPY5) receptor was amplified from mouse brain cDNA; expressed in transfected cells; membranes used
T1 sequence (O70342 1-466): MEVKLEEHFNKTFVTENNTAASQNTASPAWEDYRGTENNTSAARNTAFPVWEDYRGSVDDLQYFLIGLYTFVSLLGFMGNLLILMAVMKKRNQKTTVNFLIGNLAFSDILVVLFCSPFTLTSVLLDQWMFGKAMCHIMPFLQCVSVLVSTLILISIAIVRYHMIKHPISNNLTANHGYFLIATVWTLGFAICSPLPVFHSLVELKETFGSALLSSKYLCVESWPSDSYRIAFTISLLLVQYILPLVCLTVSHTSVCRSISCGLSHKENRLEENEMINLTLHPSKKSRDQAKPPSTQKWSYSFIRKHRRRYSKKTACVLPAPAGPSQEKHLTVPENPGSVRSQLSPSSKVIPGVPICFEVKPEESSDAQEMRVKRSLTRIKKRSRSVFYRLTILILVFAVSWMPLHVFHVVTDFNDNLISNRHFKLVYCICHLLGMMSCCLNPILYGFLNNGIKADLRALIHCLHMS
Experiment: Radioligand competition binding
Conditions: membranes of HEK293 cells expressing mNPY5; 100 pM [125I]labeled peptide YY; 1 h at 22° C.; read-out: NPY5-R (mouse) IC50
Excerpt: The full-length cDNA encoding the mouse NPY5 (mNPY5) receptor was amplified from mouse brain cDNA using specific primers, designed based on the published sequence, and Pfu DNA-Polymerase. The amplification product was subcloned into the mammalian expression vector pcDNA3 using Eco RI and XhoI restriction sites. Positive clones were sequenced and one clone, encoding the published sequence was selected for generation of stable cell clones.
Human embryonic kidney 293 (HEK293) cells were transfected with 10 μg mNPY5 DNA using the lipofectamine reagent. Two days after transfection, geneticin selection (1 mg/ml) was initiated and several stable clones were isolated. One clone was further used for pharmacological characterization.
Human embryonic kidney 293 cells (HEK293), expressing recombinant mouse NPY5-receptor (mNPY5) were broken by three freeze/thawing cycles in hypotonic Tris buffer (5 mM, pH 7.4, 1 mM MgCl2), homogenized and centrifuged at 72,000×g for 15 min. The pellet was washed twice with 75 mM Tris buffer, pH 7.4, containing 25 mM MgCl2 and 250 mM sucrose, 0.1 mM phenylmethylsulfonylfluoride and 0.1 mM 1,10-pheneanthrolin, resuspended in the same buffer and stored in aliquots at −80° C. Protein was determined according to the method of Lowry using bovine serum albumine (BSA) as a standard. […]

Row | IC50 [nM] | SMILES
1 | 9 | Cc1nc(N2CCCC2)c2ccc(OCc3ccc(C#N)cc3)cc2n1 [Compound 3, 4-(2-methyl-4-pyrrolidin-1-yl-quinazolin-7-yloxymethyl)-benzonitrile]
2 | 3 | Cc1nc(N2CCCC2)c2ccc(NCC(C)C)cc2n1 [Compound 24, isobutyl-(2-methyl-4-pyrrolidin-1-yl-quinazolin-7-yl)-amine]
